Measurements from US20200030269A1, “ANIMAL FEED COMPOSITIONS OF ABSCISIC ACID” (Valent BioSciences LLC, priority 2010, published 2020).
Several values for one entry are separate records, joined by “and”; a condition that tells them apart may be missing. Equal entries are not always repeated.

Assays:
Format in all cases: in vivo
Male Cobb 500 chickens [1] = experiment: Example 1 broiler feeding study: bird weights and feed conversion ratios; conditions: for Adjusted Feed/Gain Ratio, mean / Bird Weight, mean / Feed/Gain Ratio, mean: 5 ppm S-ABA in feed, dirty litter
Description: (§1) Male Cobb 500 chickens were fed different levels of S-ABA supplemented into starter, grower, and finisher feed diets for their entire 42 day commercial life cycle. On day 43, samples of chickens (sometimes referred to as “birds”) from each treatment were processed.
(§2) The starter, grower, and finisher basal diets represented standard commercial broiler diets. The starter and grower diets contained Salinomycin (a coccidiostat) at 40 grams/ton. The basal diets and final treatment diets were prepared using a 500 or 4,000 pound capacity vertical mixer or a 14,000 pound capacity horizontal mixer. After correcting for percent purity of S-ABA in the S-ABA dry powder, S-ABA was added to the basal diets at concentrations of 5, 50, or 500 ppm (4.6, 46, or 455 grams of S-ABA/ton). Control treatments included (1) commercial diet only and (2) commercial diet supplemented with antibiotics (bacitracin methylene disalicylate (BMD), and STAFAC® virginiamycin (hereinafter “Stafac”). STAFAC is a registered trademark of Phibro Animal Health Corporation). All feed diets were pelleted at ˜65° C. or below.
(§3) A 90-pen test facility was divided into 10 blocks containing 9 pens per block. Treatments were assigned to the pens using a complete randomized block design. Birds were assigned to the pens randomly. Specific treatment groups were as follows:
Feed was provided ad libitum throughout the study via one handing, ˜17-inch diameter tube feeder per pen. Chick feeder trays were placed in each pen for approximately the first 4 days. Feed added and removed from pens was weighed and recorded from day 0 to day 42. Diet changes were conducted at the same time for all pens. The feeding period for each diet was as shown below:
Birds were weighed by pen at 0, 7, 14, 21, 28, 35, and 42 days of age. The feed remaining in each pen was weighed and recorded on study day 0, 7, 14, 21, 28, 35, and 42 days of age. The feed intake during days 0-7, 0-14, 0-21, 0-28, 0-35, and 0-42 was calculated.
Performance data was summarized by average weight per bird at each body weights measurement period. The average feed conversion was calculated for each respective body weight period using the total feed consumption in a pen divided by the total weight of surviving birds (i.e. days 0-7, 0-14, 0-21, etc.). Adjusted feed conversion was calculated using the total feed consumption in a pen divided by the total weight of surviving birds and weight of birds that died or were removed from that pen.

Male Cobb 500 chickens [2] = experiment: Example 1 broiler feeding study: cumulative bird mortality after 42 days
Description: as §1, §2, §3
(§4) Starting on study day 0, any bird found dead or needing to be removed and sacrificed was weighed and necropsied. The probable cause of death and necropsy findings were recorded.

Male Cobb 500 chickens [3] = experiment: Example 1 broiler feeding study: digestive tract weights at processing on day 43; conditions: for Digestive Tract Weights, Mean Weight: dirty litter, day 43
Description: as §1, §2, §3
Four blocks (9 pens/block) were selected at random from each treatment. On day 42 all birds in the selected blocks were individually wing banded with a unique number. Prior to processing the birds were fasted for approximately 12 hours. Immediately after processing on day 43, digestive tract weights and Bursa of Fabricius organ weights were measured.

[4] = tested on: Male and female Cobb 500 chickens; experiment: Example 2 broiler feeding study: cumulative bird mortality after 42 days
Description: Male and female Cobb 500 chickens were fed different levels of S-ABA supplemented into starter, grower, and finisher feed diets for their entire 42 days commercial life cycle.
The starter, grower, and finisher basal diets represented standard commercial broiler diets. The starter and grower diets contained Salinomycin (a coccidiostat) at 40 grams/ton. The basal diets and final treatment diets were prepared using a 500 or 4,000 pound capacity vertical mixer or a 14,000 pound capacity horizontal mixer. After correcting for percent purity of S-ABA in the S-ABA dry powder, S-ABA was added to the basal diets at concentrations of 2.5, 5.0, or 7.5 ppm (2.3, 4.6, or 6.8 grams of S-ABA/ton). Control treatments included (1) commercial diet only and (2) commercial diet supplemented with antibiotics (bacitracin methylene disalicylate and Stafac). All feed diets were pelleted at ˜65° C. or below.
A 108-pen test facility was divided into 18 blocks containing 6 pens per block. Treatments were assigned to the pens using a complete randomized block design. Birds were assigned to the pens randomly. Specific treatment groups were as follows:
as §4

[5] = 5 ppm S-ABA in commercial feed diet versus control 1
[6] = commercial feed diet plus 5 ppm S-ABA, dirty litter, 42 days

SMILES: CC1=CC(=O)CC(C)(C)[C@@]1(O)/C=C/C(C)=C\C(=O)O [S-ABA, (S)-(+)-abscisic acid]
- bird growth (weights) compared to the commercial feed diet (control 1) (Male Cobb 500 chickens [1]; 5 ppm S-ABA in commercial feed): increased bird growth (weights)
- lowering of adjusted feed conversion ratios (corrected for number of surviving birds) (Male Cobb 500 chickens [1]; [5]): 1-2 points
- reduction of feed conversion ratios (Male Cobb 500 chickens [1]; [5]): 1-4 points
- Adjusted Feed/Gain Ratio, mean (Male Cobb 500 chickens [1]; Day 7): 1.4093
- Bird Weight, mean (Male Cobb 500 chickens [1]; Day 7): 0.1445 kg
- Feed/Gain Ratio, mean (Male Cobb 500 chickens [1]; Day 7): 1.4093
- Adjusted Feed/Gain Ratio, mean (Male Cobb 500 chickens [1]; Day 14): 1.2854
- Bird Weight, mean (Male Cobb 500 chickens [1]; Day 14): 0.3873 kg
- Feed/Gain Ratio, mean (Male Cobb 500 chickens [1]; Day 14): 1.3400
- Adjusted Feed/Gain Ratio, mean (Male Cobb 500 chickens [1]; Day 21): 1.3842
- Bird Weight, mean (Male Cobb 500 chickens [1]; Day 21): 0.7899 kg
- Feed/Gain Ratio, mean (Male Cobb 500 chickens [1]; Day 21): 1.4137
- Adjusted Feed/Gain Ratio, mean (Male Cobb 500 chickens [1]; Day 28): 1.4517
- Bird Weight, mean (Male Cobb 500 chickens [1]; Day 28): 1.4236 kg
- Feed/Gain Ratio, mean (Male Cobb 500 chickens [1]; Day 28): 1.4584
- Adjusted Feed/Gain Ratio, mean (Male Cobb 500 chickens [1]; Day 35): 1.5610
- Bird Weight, mean (Male Cobb 500 chickens [1]; Day 35): 2.0919 kg
- Feed/Gain Ratio, mean (Male Cobb 500 chickens [1]; Day 35): 1.5731
- Adjusted Feed/Gain Ratio, mean (Male Cobb 500 chickens [1]; Day 42): 1.6691
- Bird Weight, mean (Male Cobb 500 chickens [1]; Day 42): 2.7565 kg
- Feed/Gain Ratio, mean (Male Cobb 500 chickens [1]; Day 42): 1.6861
- bird mortality compared to the control treatments (Male Cobb 500 chickens [2]; 5 ppm S-ABA in commercial feed diets, versus control 1 and BMD/Stafac control 2): significantly (P=0.05) lower bird mortality
- Cumulative Bird Mortality After 42 Days: Died (Male Cobb 500 chickens [2]; [6]): 0
- Cumulative Bird Mortality After 42 Days: Lived (Male Cobb 500 chickens [2]; [6]): 200
- weight of digestive tracts compared to the commercial feed diets (control 1 and control 2) (Male Cobb 500 chickens [3]; S-ABA in the feed diet): increases the weight of digestive tracts
- Digestive Tract Weights, Mean Weight (Male Cobb 500 chickens [3]; commercial feed diet plus 5 ppm S-ABA): 86.7 Grams
- Digestive Tract Weights, Mean Weight (Male Cobb 500 chickens [3]; commercial feed diet plus 50 ppm S-ABA): 86.6 Grams
- Digestive Tract Weights, Mean Weight (Male Cobb 500 chickens [3]; commercial feed diet plus 500 ppm S-ABA): 88.4 Grams
- survival rates compared to the commercial feed diet containing bacitracin methylene disalicylate and Stafac ([4]; ABA added to commercial feed diets, 42 days): higher survival rates
- Cumulative Bird Mortality After 42 Days: Mortality ([4]; S-ABA 2.5 ppm in feed, Female, dirty litter): 2.4%
- Cumulative Bird Mortality After 42 Days: Mortality ([4]; S-ABA 2.5 ppm in feed, Male, dirty litter): 4.1%
- Cumulative Bird Mortality After 42 Days: Mortality ([4]; S-ABA 5.0 ppm in feed, Female, dirty litter (two treatment groups)): 0.4% and 1.9%
- Cumulative Bird Mortality After 42 Days: Mortality ([4]; S-ABA 5.0 ppm in feed, Male, dirty litter (two treatment groups)): 2.9% and 3.5%
- Cumulative Bird Mortality After 42 Days: Mortality ([4]; S-ABA 7.5 ppm in feed, Female, dirty litter): 2.2%
- Cumulative Bird Mortality After 42 Days: Mortality ([4]; S-ABA 7.5 ppm in feed, Male, dirty litter): 3.8%
